Laboratory results as given in BindingDB's records for PubMed 27607900 (Cardiff University, 2016).

Tests used:
Enterococcus faecalis = assay: Antimicrobial activity against Enterococcus faecalis ATCC 29212 assessed as microbial growth inhibition
[1] = Inhibition of ACT (unknown origin)

| SMILES | IC50 (Enterococcus faecalis) [nM] | IC50 [1] [nM] |
| --- | --- | --- |
| CCCC(C)CC(C)CC(C)/C=C(C)/C=C/C(O)C(C)C(=O)OC1C(O)CN2CC1NC[C@H]1O[C@@H](OC([C@H]3O[C@@H](n4ccc(=O)[nH]c4=O)[C@H](O)[C@@H]3OS(=O)(=O)O)C2C(=O)O)[C@H](O)[C@@H]1O (some centres not stated) | 12 |  |
| CC(C)OC(=O)[C@H](Cc1ccccc1)NP(=O)(N[C@@H](Cc1ccccc1)C(=O)OC(C)C)OCOCCn1cnc2c(N)nc(F)nc21 |  | 145 |
